Assay results: paper PMC4848905, “Fragment Screening of Human Aquaporin 1” (International Journal of Molecular Sciences, 2016)

T1: hAQP1 (Homo sapiens, UniProt P29972)
T1 construct: made in house; host or cells: Spodoptera frugiperda (Sf9) insect cells, baculovirus vector pFB-LIC-Bse
T1 sequence (P29972 1-269): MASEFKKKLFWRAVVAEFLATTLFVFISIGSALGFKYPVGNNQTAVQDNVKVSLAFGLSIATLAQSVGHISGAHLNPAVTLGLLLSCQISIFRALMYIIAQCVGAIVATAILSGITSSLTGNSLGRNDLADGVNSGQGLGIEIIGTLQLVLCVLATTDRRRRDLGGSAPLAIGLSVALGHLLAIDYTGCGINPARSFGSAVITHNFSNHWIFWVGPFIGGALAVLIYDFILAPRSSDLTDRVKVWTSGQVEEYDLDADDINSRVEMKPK

B1: human aquaporin 1 (6His-TEV-hAQP1) (natural protein, UniProt P29972 1-269, looked up)
chain: MASEFKKKLFWRAVVAEFLATTLFVFISIGSALGFKYPVGNNQTAVQDNVKVSLAFGLSIATLAQSVGHISGAHLNPAVTLGLLLSCQISIFRALMYIIAQCVGAIVATAILSGITSSLTGNSLGRNDLADGVNSGQGLGIEIIGTLQLVLCVLATTDRRRRDLGGSAPLAIGLSVALGHLLAIDYTGCGINPARSFGSAVITHNFSNHWIFWVGPFIGGALAVLIYDFILAPRSSDLTDRVKVWTSGQVEEYDLDADDINSRVEMKPK
notes: human aquaporin 1, full-length cDNA cloned in pFB-LIC-Bse downstream of an N-terminal 6His and TEV protease cleavage site; No TEV cleavage is described; An octamer band is also assigned in BN-PAGE; also called recombinant hAQP1; source: Sf9 (Spodoptera frugiperda) insect cells, purified (Ni-NTA, gel filtration) in n-octyl-β-D-glucopyranoside

Legend:
[1] = target: T1, hAQP1; set-up: method as in PMID 26028295; settings: 30 µM; cited from earlier work
[2] = system: human red blood cells; set-up: method as in PMID 26028295; settings: cited from earlier work
[3] = target: the molecule itself; assay: SEC; gel filtration on HiLoad 16/600 Superdex 200 prep grade at 4 °C; 20 mM Tris-HCl pH 8, 300 mM NaCl, 1% OG; major peak at 70 mL
[4] = target: the molecule itself; assay: native gel or EMSA; blue-native PAGE (4%-16% Bis-Tris gel, 4 °C) of purified protein in sample buffer with 100 mM OG, 750 mM aminocaproic acid, 50 mM Bis-Tris HCl pH 7.0, 0.5 mM EDTA

Row | Molecule | stabilization of hAQP1 [1] | overall amplitude of the traces [2] | rate constant in the RBC assays [2] | stoichiometry N [3] | stoichiometry N [4]
1 | O=[N+]([O-])c1ccc2c(c1)/C(=N/N=C1c3ccccc3Cc3ccccc31)c1cc([N+](=O)[O-])cc([N+](=O)[O-])c1-2 [NSC658139] | ≤ 13 °C | strong reduction in overall amplitude | did not reduce the rate constant |  | 
2 | B1 |  |  |  | 4 | 8
